Results taken from US8486996B2, “Aroylfuranes and aroylthiophenes” (Basilea Pharmaceutica AG, priority 2006, dated 2013).
Where two headings read alike, the source gives them in different places.

Tests used:
Type in all cases: cell-based
[1] = Hoechst 33342 nuclear staining (48 h read-out)
Method in brief: (§1)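 Adherent cells pre-spread 24 h before dosing, suspension cells dosed at seeding; compounds at 0.001 μM-10 μM final, 48 h at culture conditions. Hoechst 33342 (2-5 μg/ml) added for 30 min, then fluorescence microscopy scoring of apoptotic nuclear fraction and apoptosis-specific morphology, reported as scores A-D.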

[2] = test system: tumor cells; test: Hoechst 33342 nuclear staining (48 h read-out)
Method in brief: as §1

[3] = Mitochondrial membrane potential, JC-1 (read-out 48 h); details: PBL, JC-1, 48 h
Method in brief: (§2)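 Tumor cells were treated with test compounds (adherent cells after 24 h of attachment, suspension cells immediately), medium holding up to 5% DMSO. After 48 h, JC-1 (2-5 μg/ml in added medium) was applied for 30 min. Fluorescence microscopy (FITC/TRITC filters) scored the fraction of cells with dissipated mitochondrial membrane potential as categories A-D.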

[4] = test system: tumor cells; test: as above; details: JC-1, 48 h
Method in brief: as §2

[5] = MTS proliferation assay (72 h read-out); details: MRC5 cells
Method in brief: (§3)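 Tumour cells (1.5×10^3–10^4 per well) were seeded 24 h before compound addition, then exposed to 0.001–10 μM final compound for 72 h under culture conditions. MTS reagent was added for a further 3 h, absorbance was read at 492 nm, and results were binned into scores A–D.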

[6] = test system: tumor cells; test: MTS proliferation assay (72 h read-out)
Method in brief: as §3

[7] = MRC5 cells, read-out: Hoechst 33342 nuclear staining EC50, MRC5
[8] = PBL, read-out: Hoechst 33342 nuclear staining EC50, PBL
[9] = HeLa cells, read-out: Hoechst 33342 nuclear staining EC50, HeLa
[10] = Jily cells, read-out: Hoechst 33342 nuclear staining EC50, Jily
[11] = Jurkat cells, read-out: Hoechst 33342 nuclear staining EC50, Jurkat
[12] = HeLa cells, read-out: Mitochondrial membrane potential (read-out 48 h) HeLa
[13] = Jily cells, read-out: Mitochondrial membrane potential (read-out 48 h) Jily
[14] = Jurkat cells, read-out: Mitochondrial membrane potential (read-out 48 h) Jurkat
[15] = MCF7 cells, read-out: Mitochondrial membrane potential (read-out 48 h) MCF7
[16] = HT1080 cells, read-out: MTS proliferation assay IC50, HT1080
[17] = HeLa cells, read-out: MTS proliferation assay IC50, HeLa
[18] = Jily cells, read-out: MTS proliferation assay IC50, Jily
[19] = Jurkat cells, read-out: MTS proliferation assay IC50, Jurkat

Compound	EC50 [1, 8] [nM]	EC50 [2, 9] [nM]	EC50 [2, 10] [nM]	EC50 [2, 11] [nM]	EC50 [3] [nM]	EC50 [4, 12] [nM]	EC50 [4, 13] [nM]	EC50 [4, 14] [nM]	EC50 [4, 15] [nM]	IC50 [6, 16] [nM]	IC50 [6, 17] [nM]	IC50 [6, 18] [nM]	IC50 [6, 19] [nM]	EC50 [1, 7] [nM]	IC50 [5] [nM]
CCOc1ccc(F)cc1C(=O)c1cc2cc(OC(C)=O)ccc2o1 [Example 65]	> 1000	10 to 100	10 to 100	< 10	> 1000	10 to 100	10 to 100	< 10	> 1000	< 10	10 to 100	< 10	< 10	100 to 1000	< 10
Nc1c(C(=O)c2cc(F)ccc2N2CC=CCC2)oc2ccc(Cl)cc12 [Example 103]	> 1000	10 to 100	10 to 100	10 to 100	> 1000	10 to 100	10 to 100	10 to 100	10 to 100	10 to 100	10 to 100	10 to 100	10 to 100	10 to 100	10 to 100
COc1ccc2oc(C(=O)c3cc(F)ccc3-n3ccnc3)cc2c1 [Example 105]	> 1000	> 1000	> 1000	> 1000	> 1000	> 1000	> 1000	> 1000	> 1000	> 1000	> 1000	> 1000	> 1000	> 1000	> 1000
Nc1c(C(=O)c2cccnc2N2CCC(O)CC2)oc2ccc(Cl)cc12 [Example 86]	> 1000	> 1000	> 1000	> 1000	> 1000	> 1000	> 1000	> 1000	> 1000	> 1000	> 1000	100 to 1000	100 to 1000	> 1000	> 1000

Now from value to compound, other results behind:

EC50 [1, 8] [nM]	EC50 [2, 9] [nM]	EC50 [2, 10] [nM]	EC50 [2, 11] [nM]	EC50 [3] [nM]	EC50 [4, 12] [nM]	EC50 [4, 13] [nM]	EC50 [4, 14] [nM]	EC50 [4, 15] [nM]	IC50 [6, 16] [nM]	IC50 [6, 17] [nM]	IC50 [6, 18] [nM]	IC50 [6, 19] [nM]	Compound	EC50 [1, 7] [nM]	IC50 [5] [nM]
> 1000	> 1000	> 1000	> 1000	> 1000	> 1000	> 1000	> 1000	> 1000	> 1000	> 1000	> 1000		CCNc1ncccc1C(=O)c1oc2ccc(Cl)cc2c1N [Example 76]	> 1000	> 1000
> 1000	> 1000	> 1000	> 1000	> 1000	10 to 100	10 to 100	10 to 100	10 to 100	> 1000	> 1000	> 1000	> 1000	COc1ccc2oc(C(=O)c3cccnc3N3CCCCC3)cc2c1 [Example 92]	> 1000	> 1000
> 1000	> 1000	> 1000	> 1000	> 1000	> 1000	> 1000	> 1000	> 1000	> 1000	> 1000	> 1000	> 1000	CCOc1ccccc1C(=O)c1oc2ccc(I)cc2c1N [Example 43]	> 1000	> 1000
> 1000	> 1000	> 1000	> 1000	> 1000	> 1000	> 1000	> 1000	> 1000	100 to 1000	> 1000	100 to 1000	100 to 1000	COc1ccc2oc(C(=O)c3cc(F)ccc3N3CCCCC3C)cc2c1 (stereo not shown) [Example 97]	> 1000	100 to 1000
> 1000	> 1000	100 to 1000	100 to 1000	> 1000	> 1000	100 to 1000	100 to 1000	> 1000	> 1000	> 1000	100 to 1000		CCOc1ccccc1C(=O)c1oc2ccc(N)cc2c1N [Example 52]	> 1000	> 1000
